Our source for the MIC values is ChEMBL document CHEMBL5370535, “Thiazolyl hydrazineylidenyl indolones as unique potential multitargeting broad-spectrum antimicrobial agents” (Eur J Med Chem, 2023).

Values after ≈ are worked out from the molar mass of the structure shown.

Format in all cases: functional
Test [1] relates to Candida albicans. The test can be described thus: Antifungal activity against Candida albicans assessed as inhibition of fungal growth incubated for 24 hrs by CLSI based two serial dilution assay.
In test [2] the test system is Staphylococcus aureus. The test can be described thus: Antibacterial activity against Staphylococcus aureus 29213 assessed as bacterial growth inhibition incubated for 24 hrs by CLSI based two serial dilution assay.
In test [3] the test system is Staphylococcus aureus. The test can be described thus: Antibacterial activity against Staphylococcus aureus assessed as bacterial growth inhibition incubated for 24 hrs by CLSI based two serial dilution assay.
The subject of the next test is Enterococcus faecalis. As to the kind of experiment: Antibacterial activity against Enterococcus faecalis assessed as bacterial growth inhibition incubated for 24 hrs by CLSI based two serial dilution assay.
Test [4] relates to Pseudomonas aeruginosa. The test can be described thus: Antibacterial activity against Pseudomonas aeruginosa ATCC 27853 assessed as bacterial growth inhibition incubated for 24 hrs by CLSI based two serial dilution assay.
Test [5] deals with Escherichia coli. As to the kind of experiment: Antibacterial activity against Escherichia coli 25922 assessed as bacterial growth inhibition incubated for 24 hrs by CLSI based two serial dilution assay.
In test [6] the test system is Escherichia coli. The test can be described thus: Antibacterial activity against Escherichia coli assessed as bacterial growth inhibition incubated for 24 hrs by CLSI based two serial dilution assay.
Test [7] relates to Pseudomonas aeruginosa. As to the kind of experiment: Antibacterial activity against Pseudomonas aeruginosa assessed as bacterial growth inhibition incubated for 24 hrs by CLSI based two serial dilution assay.
The subject of test [8] is Candida albicans. The test can be described thus: Antifungal activity against Candida albicans ATCC 90023 assessed as inhibition of fungal growth incubated for 24 hrs by CLSI based two serial dilution assay.
Test [9] relates to Staphylococcus aureus. As to the kind of experiment: Antibacterial activity against Staphylococcus aureus 25923 assessed as bacterial growth inhibition incubated for 24 hrs by CLSI based two serial dilution assay.
The test system of a further test is Aspergillus fumigatus. As to the kind of experiment: Antifungal activity against Aspergillus fumigatus assessed as inhibition of fungal growth incubated for 24 hrs by CLSI based two serial dilution assay.
A further test has as its system Acinetobacter baumannii. The test can be described thus: Antibacterial activity against Acinetobacter baumannii assessed as bacterial growth inhibition incubated for 24 hrs by CLSI based two serial dilution assay.
Test [10] relates to Staphylococcus aureus. The test can be described thus: Antibacterial activity against methicillin-resistant Staphylococcus aureus assessed as bacterial growth inhibition incubated for 24 hrs by CLSI based two serial dilution assay.
A further test concerns Candida tropicalis. As to the kind of experiment: Antifungal activity against Candida tropicalis assessed as inhibition of fungal growth incubated for 24 hrs by CLSI based two serial dilution assay.
For a further test, the system named is Candida parapsilosis. As to the kind of experiment: Antifungal activity against Candida parapsilosis ATCC 22019 assessed as inhibition of fungal growth incubated for 24 hrs by CLSI based two serial dilution assay. The conditions noted are these: Lodderomyces parapsilosis.
For the next test, the system named is Klebsiella pneumoniae. As to the kind of experiment: Antibacterial activity against Klebsiella pneumoniae assessed as bacterial growth inhibition incubated for 24 hrs by CLSI based two serial dilution assay.

As to `CCCCN1C(=O)/C(=N\Nc2nccs2)c2cc(OC)ccc21`, the minimum inhibitory concentration (MIC) is 64 µM (≈ 21.1 µg/mL) in the test on Candida albicans [1]; 16 µM (≈ 5.29 µg/mL) in the test on Staphylococcus aureus [2]; 32 µM (≈ 10.6 µg/mL) in the test with Staphylococcus aureus [3]; 4 µM (≈ 1.32 µg/mL) in the test with Enterococcus faecalis; 32 µM (≈ 10.6 µg/mL) with Pseudomonas aeruginosa [4]; 4 µM (≈ 1.32 µg/mL) in the test with Escherichia coli [5]. In addition, the MIC came to 16 µM (≈ 5.29 µg/mL) in the test with Escherichia coli [6]; 4 µM (≈ 1.32 µg/mL) in the test with Pseudomonas aeruginosa [7]; 32 µM (≈ 10.6 µg/mL) with Candida albicans [8]; 16 µM (≈ 5.29 µg/mL) in the test on Staphylococcus aureus [9]; 32 µM (≈ 10.6 µg/mL) in the test with Aspergillus fumigatus; 16 µM (≈ 5.29 µg/mL) in the test on Acinetobacter baumannii. Moreover, the MIC with Staphylococcus aureus [10] worked out at 8 µM (≈ 2.64 µg/mL); in the test with Candida tropicalis it was 128 µM (≈ 42.3 µg/mL); with Candida parapsilosis, 16 µM (≈ 5.29 µg/mL); in the test on Klebsiella pneumoniae, 128 µM (≈ 42.3 µg/mL).
As for `O=C1/C(=N\Nc2nccs2)c2ccccc2N1Cc1ccc(Cl)cc1`, the MIC worked out at 16 µM (≈ 5.9 µg/mL) in the test on Candida albicans [1]; 4 µM (≈ 1.48 µg/mL) in the test with Staphylococcus aureus [2]; 4 µM (≈ 1.48 µg/mL) in the test with Staphylococcus aureus [3]; 64 µM (≈ 23.6 µg/mL) with Enterococcus faecalis; 128 µM (≈ 47.2 µg/mL) in the test on Pseudomonas aeruginosa [4]; 32 µM (≈ 11.8 µg/mL) in the test on Escherichia coli [5]. Further, the MIC in the test on Escherichia coli [6] was determined as 128 µM (≈ 47.2 µg/mL); in the test with Pseudomonas aeruginosa [7], 16 µM (≈ 5.9 µg/mL); in the test with Candida albicans [8], 32 µM (≈ 11.8 µg/mL); in the test on Staphylococcus aureus [9], 4 µM (≈ 1.48 µg/mL); with Aspergillus fumigatus, 16 µM (≈ 5.9 µg/mL); with Acinetobacter baumannii it was 64 µM (≈ 23.6 µg/mL). Besides, the MIC was found to be 64 µM (≈ 23.6 µg/mL) in the test on Staphylococcus aureus [10], 16 µM (≈ 5.9 µg/mL) with Candida tropicalis, 4 µM (≈ 1.48 µg/mL) in the test with Candida parapsilosis and 32 µM (≈ 11.8 µg/mL) with Klebsiella pneumoniae.
Take `C#CCN1C(=O)/C(=N\Nc2nccs2)c2ccccc21`: the MIC was found to be 256 µM (≈ 72.3 µg/mL) in the test with Candida albicans [1]; 512 µM (≈ 145 µg/mL) in the test with Staphylococcus aureus [2]; 256 µM (≈ 72.3 µg/mL) with Staphylococcus aureus [3]; 256 µM (≈ 72.3 µg/mL) in the test with Enterococcus faecalis; 512 µM (≈ 145 µg/mL) in the test with Pseudomonas aeruginosa [4]; 512 µM (≈ 145 µg/mL) with Escherichia coli [5]. Also, the minimal inhibitory concentration (MIC) in the test on Escherichia coli [6] is 512 µM (≈ 145 µg/mL); in the test on Pseudomonas aeruginosa [7], 256 µM (≈ 72.3 µg/mL); in the test with Candida albicans [8] it was 256 µM (≈ 72.3 µg/mL); in the test with Staphylococcus aureus [9] it was 512 µM (≈ 145 µg/mL); in the test on Aspergillus fumigatus, 64 µM (≈ 18.1 µg/mL); with Acinetobacter baumannii, 512 µM (≈ 145 µg/mL). The MIC with Staphylococcus aureus [10] worked out at 256 µM (≈ 72.3 µg/mL); in the test on Candida tropicalis it was 256 µM (≈ 72.3 µg/mL); in the test on Candida parapsilosis, 64 µM (≈ 18.1 µg/mL); with Klebsiella pneumoniae it was 512 µM (≈ 145 µg/mL).
`CCCCN1C(=O)/C(=N\Nc2nccs2)c2cc(Br)ccc21`: the minimal inhibitory concentration (MIC) in the test on Candida albicans [1] turned out to be 32 µM (≈ 12.1 µg/mL); in the test with Staphylococcus aureus [2], 16 µM (≈ 6.07 µg/mL); in the test on Staphylococcus aureus [3] it was 64 µM (≈ 24.3 µg/mL); with Enterococcus faecalis, 32 µM (≈ 12.1 µg/mL); in the test on Pseudomonas aeruginosa [4], 256 µM (≈ 97.1 µg/mL); in the test on Escherichia coli [5], 16 µM (≈ 6.07 µg/mL). Moreover, the MIC in the test with Escherichia coli [6] was determined as 16 µM (≈ 6.07 µg/mL); in the test with Pseudomonas aeruginosa [7] it was 8 µM (≈ 3.03 µg/mL); with Candida albicans [8], 64 µM (≈ 24.3 µg/mL); with Staphylococcus aureus [9], 32 µM (≈ 12.1 µg/mL); in the test with Aspergillus fumigatus it was 16 µM (≈ 6.07 µg/mL); in the test on Acinetobacter baumannii, 16 µM (≈ 6.07 µg/mL). The MIC came to 16 µM (≈ 6.07 µg/mL) in the test on Staphylococcus aureus [10], 64 µM (≈ 24.3 µg/mL) with Candida tropicalis, 32 µM (≈ 12.1 µg/mL) with Candida parapsilosis and 256 µM (≈ 97.1 µg/mL) in the test with Klebsiella pneumoniae.
As for `CCCCN1C(=O)/C(=N\Nc2nc(C)cs2)c2ccccc21`, the MIC in the test with Candida albicans [1] is 256 µM (≈ 80.5 µg/mL); in the test on Staphylococcus aureus [2], 32 µM (≈ 10.1 µg/mL); in the test with Staphylococcus aureus [3] it was 32 µM (≈ 10.1 µg/mL); with Enterococcus faecalis, 16 µM (≈ 5.03 µg/mL); in the test on Pseudomonas aeruginosa [4], 512 µM (≈ 161 µg/mL); with Escherichia coli [5], 4 µM (≈ 1.26 µg/mL). Also, the minimum inhibitory concentration (MIC) with Escherichia coli [6] turned out to be 16 µM (≈ 5.03 µg/mL); with Pseudomonas aeruginosa [7], 1 µM (≈ 0.314 µg/mL); in the test with Candida albicans [8] it was 1 µM (≈ 0.314 µg/mL); with Staphylococcus aureus [9], 8 µM (≈ 2.52 µg/mL); in the test on Aspergillus fumigatus, 64 µM (≈ 20.1 µg/mL); in the test with Acinetobacter baumannii, 4 µM (≈ 1.26 µg/mL). Further, the minimum inhibitory concentration (MIC) amounted to 2 µM (≈ 0.629 µg/mL) with Staphylococcus aureus [10], 4 µM (≈ 1.26 µg/mL) in the test on Candida tropicalis, 256 µM (≈ 80.5 µg/mL) in the test on Candida parapsilosis and 4 µM (≈ 1.26 µg/mL) in the test with Klebsiella pneumoniae.
Consider `CCCCCCCCCCN1C(=O)/C(=N\Nc2nccs2)c2ccccc21`, for which the MIC in the test on Candida albicans [1] worked out at 512 µM (≈ 197 µg/mL); with Staphylococcus aureus [2] it was 512 µM (≈ 197 µg/mL); in the test on Staphylococcus aureus [3], 512 µM (≈ 197 µg/mL); in the test with Enterococcus faecalis, 4 µM (≈ 1.54 µg/mL); with Pseudomonas aeruginosa [4] it was 512 µM (≈ 197 µg/mL); in the test with Escherichia coli [5], 64 µM (≈ 24.6 µg/mL). The minimal inhibitory concentration (MIC) in the test on Escherichia coli [6] is 512 µM (≈ 197 µg/mL); in the test with Pseudomonas aeruginosa [7], 64 µM (≈ 24.6 µg/mL); in the test with Candida albicans [8] it was 256 µM (≈ 98.4 µg/mL); in the test on Staphylococcus aureus [9], 512 µM (≈ 197 µg/mL); in the test on Aspergillus fumigatus, 512 µM (≈ 197 µg/mL); in the test on Acinetobacter baumannii, 512 µM (≈ 197 µg/mL). In addition, the minimal inhibitory concentration (MIC) stood at 512 µM (≈ 197 µg/mL) with Staphylococcus aureus [10], 64 µM (≈ 24.6 µg/mL) in the test with Candida tropicalis, 256 µM (≈ 98.4 µg/mL) in the test with Candida parapsilosis and 256 µM (≈ 98.4 µg/mL) in the test with Klebsiella pneumoniae.
`O=C(N[C@H](CO)[C@H](O)c1ccc([N+](=O)[O-])cc1)C(Cl)Cl` [CHLORAMPHENICOL]: the MIC worked out at 4 µM (≈ 1.29 µg/mL) in the test on Staphylococcus aureus [2]; 8 µM (≈ 2.59 µg/mL) in the test on Staphylococcus aureus [3]; 8 µM (≈ 2.59 µg/mL) with Enterococcus faecalis; 8 µM (≈ 2.59 µg/mL) in the test on Pseudomonas aeruginosa [4]; 16 µM (≈ 5.17 µg/mL) with Escherichia coli [5]; 32 µM (≈ 10.3 µg/mL) in the test on Escherichia coli [6]. The MIC in the test with Pseudomonas aeruginosa [7] was 32 µM (≈ 10.3 µg/mL); with Staphylococcus aureus [9], 8 µM (≈ 2.59 µg/mL); with Acinetobacter baumannii it was 16 µM (≈ 5.17 µg/mL); in the test with Staphylococcus aureus [10] it was 16 µM (≈ 5.17 µg/mL); in the test with Klebsiella pneumoniae it was 8 µM (≈ 2.59 µg/mL).

Usually MIC stands for the smallest concentration in the dilution series that meets the test's criterion for growth inhibition.
